Calls of active or inactive are those of the source. No cut-off for these calls is given here.
Columns and labels:
[1] = Cytotoxicity against african green monkey Vero E6 cells incubated for 3 days by CCK8 assay; type: toxicity, cell-based, Vero C1008; details: chlorocebus sabaeus, time 3 day
[2] = system: SARS-CoV-2; assay: Antiviral activity against SARS-CoV-2 JPN/TY/WK-521 infected in Vero E6 cells assessed as reduction in viral RNA level incubated for 3 days by RT-qPCR analysis; type: functional, organism-based; details: Severe acute respiratory syndrome coronavirus 2, JPN/TY/WK-521, Vero C1008, 72 h
[3] = Inhibition of SARS-CoV-1 PL protease using (Z)-Arg-Leu-Arg-Gly-Gly-4-methyl-coumaryl-7-amide as substrate measured every 150 sec for 1 hr by multimode reader assay; set-up: species or system Severe acute respiratory syndrome-related coronavirus
[4] = Inhibition of SARS-CoV-1 PL protease using (Z)-Arg-Leu-Arg-Gly-Gly-4-methyl-coumaryl-7-amide as substrate and varying concentration of […] by Lineweaver-burk plot analysis; set-up: species or system Severe acute respiratory syndrome-related coronavirus
[5] = Inhibition of SARS-CoV-1 PL protease using varying concentration of (Z)-Arg-Leu-Arg-Gly-Gly-4-methyl-coumaryl-7-amide as substrate by Dixon plot analysis; set-up: species or system Severe acute respiratory syndrome-related coronavirus
[6] = biological target: T1, Replicase polyprotein 1ab (Severe acute respiratory syndrome coronavirus 2, UniProt P0DTD1); assay: Inhibition of SARS-CoV-2 PL protease using varying concentration of (Z)-Arg-Leu-Arg-Gly-Gly-4-methyl-coumaryl-7-amide as substrate by Dixon plot analysis
[7] = biological target: T1, Replicase polyprotein 1ab; assay: Inhibition of SARS-CoV-2 PL protease using (Z)-Arg-Leu-Arg-Gly-Gly-4-methyl-coumaryl-7-amide as substrate and varying concentration of […] by Lineweaver-burk plot analysis
[8] = system: SARS-CoV-2; assay: Antiviral activity against SARS-CoV-2 JPN/TY/WK-521 infected in Vero E6 cells assessed as reduction in cytopathic effect at 1 to 100 uM pretreated with virus for 1 hr followed by viral washout and compound exposure for 3 days by immunocytochemistry analysis; type: functional, organism-based; details: Severe acute respiratory syndrome coronavirus 2, dose 1-100 µM, time 3.0 day
[9] = biological target: T1, Replicase polyprotein 1ab; assay: Inhibition of SARS-CoV-2 PL protease using (Z)-Arg-Leu-Arg-Gly-Gly-4-methyl-coumaryl-7-amide as substrate measured every 150 sec for 1 hr by multimode reader assay

SMILES	CC50 at 72 h [1] [µM]	EC50 [2] [µM]	further results
Cc1ccc(CNC(=O)CC(F)(F)F)cc1C(=O)N[C@H](C)c1cccc2ccccc12	> 100	40.7	
Cc1ccc(CNC(=O)c2ccc([N+](=O)[O-])c(F)c2)cc1C(=O)N[C@H](C)c1cccc2ccccc12	> 100	76.9	
Cc1cccc(C(=O)NCc2ccc(C)c(C(=O)N[C@H](C)c3cccc4ccccc34)c2)c1	> 100	44	
Cc1ccc(CNC(=O)C(=O)O)cc1C(=O)N[C@H](C)c1cccc2cc3ccccc3cc12	> 100	> 100	
Cc1ccc(CNC(=O)c2ccccc2[N+](=O)[O-])cc1C(=O)N[C@H](C)c1cccc2ccccc12	55.6	18.3	
Cc1ccc(CNC(=O)c2ccccc2)cc1C(=O)N[C@H](C)c1cccc2ccccc12	> 100	35.4	
Cc1ccc(CNC(=O)C(N)=O)cc1C(=O)N[C@H](C)c1cccc2ccccc12	> 100	> 100	
Cc1ccc(CNC(=O)c2ccc(F)cc2C(F)(F)F)cc1C(=O)N[C@H](C)c1cccc2ccccc12	> 100	> 100	
Cc1ccc(CNC(=O)OC(C)(C)C)cc1C(=O)N[C@H](C)c1cccc2cc3ccccc3cc12	> 100	> 100	
Cc1ccc(C(=O)NCc2ccc(C)c(C(=O)N[C@H](C)c3cccc4ccccc34)c2)cc1	> 100	> 100	
Cc1ccc(CNC(=O)c2ccc(F)c(F)c2)cc1C(=O)N[C@H](C)c1cccc2cc3ccccc3cc12	> 100	> 100	
Cc1ccc(CNC(=O)c2ccccc2C(F)(F)F)cc1C(=O)N[C@H](C)c1cccc2ccccc12	> 100	27.4	
CC(=O)NCc1ccc(C)c(C(=O)N[C@H](C)c2cccc3ccccc23)c1	> 100	> 100	
Cc1ccc(CNC(=O)C(C(F)(F)F)C(F)(F)F)cc1C(=O)N[C@H](C)c1cccc2ccccc12	> 100	> 100	
Cc1ccc(CNC(=O)c2cc(F)c(F)cc2F)cc1C(=O)N[C@H](C)c1cccc2ccccc12	> 100	> 100	
Cc1ccc(N)cc1C(=O)N[C@H](C)c1cccc2ccccc12	> 100	24.7	IC50 [3]: 0.05 µM; Ki [4]: 0.12 µM; Ki [5]: 0.29 µM
CNCc1ccc(C)c(C(=O)N[C@H](C)c2cccc3ccccc23)c1	> 100	25.2	
Cc1ccc(CNC(=O)c2cccc(F)c2)cc1C(=O)N[C@H](C)c1cccc2ccccc12	> 100	57.4	
Cc1ccc(CNC(=O)c2ccc(C(F)(F)F)cc2F)cc1C(=O)N[C@H](C)c1cccc2ccccc12	> 100	> 100	
Cc1ccc(CNC(=O)c2ccc([N+](=O)[O-])cc2)cc1C(=O)N[C@H](C)c1cccc2ccccc12	> 100	40.3	

SMILES	CC50 at 72 h [1] [µM]	EC50 [2] [µM]	further results
Cc1ccc(CNC(=O)c2ccc(C(F)(F)F)c(F)c2)cc1C(=O)N[C@H](C)c1cccc2ccccc12	> 100	> 100	
Cc1ccc(CN)cc1C(=O)N[C@H](C)c1cccc2cc3ccccc3cc12	40.5	27.3	
Cc1ccc(CNC(=O)c2ccc(F)c(F)c2)cc1C(=O)N[C@H](C)c1cccc2ccccc12	> 100	3.8	IC50 [3]: 0.3 µM; Ki [6]: 5.3 µM; Ki [7]: 5.6 µM; Ki [4]: 0.16 µM; Ki [5]: 0.28 µM; Activity [8]: Active
Cc1ccc(CNC(=O)c2ccc(F)cc2)cc1C(=O)N[C@H](C)c1cccc2ccccc12	> 100	25.7	
Cc1ccc(CNC(=O)c2c(F)c(F)cc(F)c2F)cc1C(=O)N[C@H](C)c1cccc2ccccc12	> 100	44.8	
Cc1ccc(CNC(=O)c2c(F)cc(F)cc2F)cc1C(=O)N[C@H](C)c1cccc2ccccc12	> 100	> 100	
CCOC(=O)C(=O)NCc1ccc(C)c(C(=O)N[C@H](C)c2cccc3ccccc23)c1	> 100	> 100	
Cc1ccc(CNC(=O)c2cccc(C(F)(F)F)c2C)cc1C(=O)N[C@H](C)c1cccc2ccccc12	> 100	> 100	
Cc1ccc(CNC(=O)c2cccc(C(F)(F)F)c2F)cc1C(=O)N[C@H](C)c1cccc2ccccc12	> 100	29.1	
Cc1ccc(CNC(=O)c2ccc(F)cc2F)cc1C(=O)N[C@H](C)c1cccc2ccccc12	> 100	> 100	
Cc1ccc(CNC(=O)C(F)(F)F)cc1C(=O)N[C@H](C)c1cccc2ccccc12	> 100	30.3	
Cc1ccccc1C(=O)NCc1ccc(C)c(C(=O)N[C@H](C)c2cccc3ccccc23)c1	> 100	15.1	
Cc1ccc(CNC(=O)c2ccc(C(C)(C)C)cc2)cc1C(=O)N[C@H](C)c1cccc2ccccc12	58.2	7.3	IC50 [3]: 0.47 µM; Ki [6]: 4.6 µM; IC50 [9]: 3.1 µM; Ki [7]: 4.1 µM; Ki [4]: 0.32 µM; Ki [5]: 0.54 µM
Cc1ccc(CNC(=O)C(=O)O)cc1C(=O)N[C@H](C)c1cccc2ccccc12	> 100	2.7	IC50 [3]: 0.46 µM; Ki [6]: 4.6 µM; IC50 [9]: 5.9 µM; Ki [7]: 4.4 µM; Ki [4]: 0.12 µM; Ki [5]: 0.18 µM; Activity [8]: Active
Cc1ccc(CNC(=O)c2cc(C(F)(F)F)cc(C(F)(F)F)c2)cc1C(=O)N[C@H](C)c1cccc2ccccc12	> 100	72.8	
Cc1ccc(CNC(=O)c2ccc(C(F)(F)F)cc2)cc1C(=O)N[C@H](C)c1cccc2ccccc12	> 100	18.7	
Cc1ccc(CNC(=O)c2ccccc2F)cc1C(=O)N[C@H](C)c1cccc2ccccc12	> 100	13.2	
Cc1ccc(CNC(=O)c2cccc(C(F)(F)F)c2)cc1C(=O)N[C@H](C)c1cccc2ccccc12	> 100	15.7	
Cc1ccc(CNC(=O)c2cccc(F)c2F)cc1C(=O)N[C@H](C)c1cccc2ccccc12	> 100	52.3	
Cc1ccc(CN)cc1C(=O)N[C@H](C)c1cccc2ccccc12	> 100	15.5	

Source: ChEMBL document CHEMBL6092199, “Naphthalen-1-ylethanamine-containing small molecule inhibitors of the papain-like protease of SARS-CoV-2” (Eur J Med Chem, 2024)
